Drawing on BindingDB's records for doi:10.1021/jm970682+ (University of Louvain, 1998), this text covers Ki for nine molecules.

The first test can be described thus: The compound was tested for the affinity on sigma 1 receptor using [3H]- pentazocine as radioligand.
`CCC(=O)c1ccc2c(c1)sc(=O)n2C(=O)CC` [3,6-Dipropionyl-3H-benzothiazol-2-one] came in with a Ki of 63 nM.

Assay in another test: as above
The source holds these as a separate data set.
With `CCCCC(=O)c1ccc2c(c1)sc(=O)n2CCN(C)C` [3-(2-Dimethylamino-ethyl)-6-pentanoyl-3H-benzothiazol-2-one], the inhibitory constant (Ki) is 628 nM. On the same count and under the same terms, the value for `CCC(=O)c1ccc2c(c1)oc(=O)n2CCN1CCCCC1` [3-(2-Piperidin-1-yl-ethyl)-6-propionyl-3H-benzooxazol-2-one] was 72 nM; that for `CCC(=O)c1ccc2c(c1)sc(=O)n2CCN1CCCCC1` [3-(2-Piperidin-1-yl-ethyl)-6-propionyl-3H-benzothiazol-2-one] was 47 nM. Same read-out and setting: the value for `CCCc1ccc2c(c1)sc(=O)n2CCN1CCCCC1` [3-(2-Piperidin-1-yl-ethyl)-6-propyl-3H-benzothiazol-2-one] was 0.6 nM; that for `CN(C)CCn1c(=O)oc2cc(C(=O)c3ccccc3)ccc21` [6-Benzoyl-3-(2-dimethylamino-ethyl)-3H-benzooxazol-2-one] was 365 nM.

Regarding `O=C(c1ccccc1)c1ccc2c(c1)sc(=O)n2CCN1CCCC1` [6-Benzoyl-3-(2-pyrrolidin-1-yl-ethyl)-3H-benzothiazol-2-one], the Ki is 54 nM. On the same count and under the same terms, the value for `O=c1oc2cc(Cc3ccccc3)ccc2n1CCN1CCOCC1` [6-Benzyl-3-(2-morpholin-4-yl-ethyl)-3H-benzooxazol-2-one] was 72 nM; that for `CCC(=O)c1ccc2c(c1)sc(=O)n2CCN1CCCC1` [6-Propionyl-3-(2-pyrrolidin-1-yl-ethyl)-3H-benzothiazol-2-one] was 571 nM.
